Reference: patent US20050074879A1, “Antisense oligonucleotide modulation of STAT3 expression” (priority 2000, published 2005)
Oligonucleotides are written 5' to 3', each unit as a sugar letter and its base; * is a phosphorothioate linkage, no mark a phosphodiester; rarer units and linkages stand in square brackets, end groups in braces. Plain capitals give the bases only. e = 2'-O-(2-methoxyethyl) (MOE); [5mC] = 5-methylcytosine; d = 2'-deoxy (DNA)

Tests used:
[1] = tested on: Human STAT3 mRNA; assay: Human STAT3 mRNA dose response in T-24 cells, real-time PCR with PPS 199 (Table 18); assay type: cell-based; conditions: 16 hours, − decrease, + increase relative to untreated control
In short: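 Bladder carcinoma T-24 cells transfected with oligonucleotide at 18.75, 37.5, 75 or 150 nM plus 3 ug/mL LIPOFECTIN per 100 nM, 16 h. STAT3 mRNA quantified by real-time PCR (PPS 199), normalized with Ribogreen; change given relative to untreated cells.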

[2] = tested on: Human STAT3 mRNA; assay: Inhibition of human STAT3 mRNA levels in A549 cells, 75 nM, real-time PCR (Table 13); assay type: cell-based; conditions: 75 nM oligonucleotide with LIPOFECTIN, real-time PCR PPS 199, percent inhibition relative to untreated control cells, average of 2 experiments
In short: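 A549 cells at 65–75% confluency were transfected in duplicate with 75 nM oligonucleotide plus […] Lipofectin for 4–7 h at 37° C and harvested 16–24 h later. STAT3 mRNA was quantified by real-time RT-PCR with primer-probe set PPS 199 and normalized to RiboGreen total RNA. Inhibition is relative to untreated controls.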

Substance | Percent change of STAT3 expression using PPS 199 ([1]; 18.75 nM oligonucleotide) [%] | Percent change of STAT3 expression using PPS 199 ([1]; 37.5 nM oligonucleotide) [%] | Percent change of STAT3 expression using PPS 199 ([1]; 75 nM oligonucleotide) [%] | Percent change of STAT3 expression using PPS 199 ([1]; 150 nM oligonucleotide) [%] | % Inhib (inhibition of human STAT 3 mRNA levels) [2] [%]
337332 (antisense eG*eA*eA*eG*e[5mC]*d[5mC]*d[5mC]*dT*dT*dG*d[5mC]*d[5mC]*dA*dG*d[5mC]*e[5mC]*eA*eT*eG*eT) [compound 337332] | −63 | −79 | −87 | −92 | 91
337333 (antisense eA*eA*eG*eG*eA*dG*dA*dA*dG*d[5mC]*d[5mC]*d[5mC]*dT*dT*dG*e[5mC]*e[5mC]*eA*eG*e[5mC]) [compound 337333] | −48 | −73 | −82 | −88 | 90
337348 (antisense eT*e[5mC]*e[5mC]*eG*eA*dA*dT*dG*d[5mC]*d[5mC]*dT*d[5mC]*d[5mC]*dT*d[5mC]*e[5mC]*eT*eT*eG*eG) [compound 337348] | −61 | −77 | −82 | −86 | 92
